Data taken from patent US20200172483A1, “HETEROCYCLIC SMALL MOLECULE MODULATORS OF HUMAN STING” (Curadev Pharma Limited, priority 2017, published 2020).
Like-named read-outs stand apart in the source and are kept apart here.

What was measured:
[1] = molecular target: T1, hSTING (HAQ) (Homo sapiens, UniProt Q86WV6, G230A/H232R/R293Q/R71H); assay: Luciferase reporter assay in HEK293T-hSTING-Luciferase cells (HAQ polymorph); format: cell-based; conditions: EC50 range
T1 construct: host or cells: HEK293T
T1 sequence (Q86WV6 whole entry R71H/G230A/H232R/R293Q): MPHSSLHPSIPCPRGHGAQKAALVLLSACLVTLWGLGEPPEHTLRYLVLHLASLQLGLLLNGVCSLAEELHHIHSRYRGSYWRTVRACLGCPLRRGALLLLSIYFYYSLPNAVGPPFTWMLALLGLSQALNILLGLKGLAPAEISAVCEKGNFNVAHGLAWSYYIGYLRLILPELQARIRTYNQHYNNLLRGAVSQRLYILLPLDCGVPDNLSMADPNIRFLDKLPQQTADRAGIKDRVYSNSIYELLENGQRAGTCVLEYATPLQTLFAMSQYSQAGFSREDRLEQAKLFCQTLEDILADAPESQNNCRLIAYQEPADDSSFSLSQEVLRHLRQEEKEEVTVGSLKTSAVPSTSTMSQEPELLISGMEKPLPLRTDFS
Excerpt: (§1) • a) Stable STING expressing cells—Stable HEK293T STING-expressing cell lines were generated using plasmids purchased from Invivogen, CA, USA, that contain STING cDNA cloned into the pUNO-1 vector under hEF1-HTLV promoter and containing the Blasticidin selection cassette. The plasmids hSTING (R232), hSTING (H232), hSTING (HAQ) were directly procured from Invivogen while hSTING (AQ) and hSTING (Q) were derived from hSTING (HAQ) and hSTING (R232) plasmids respectively by using a PCR based site directed mutagenesis method. These vectors were individually transfected into HEK293T cells using Lipofectamine (Invitrogen) and transfected cells were selected under Blasticidin selection. These transfected cells were further subjected to clonal selection using the limiting dilution method to obtain clonally pure populations of HEK cells transfected with each of the above mentioned human STING variants. Only those clones were selected in which ligand independent activation of STING was minimal. • b) Stable Luciferase reporter gene expressing cells—Stable HEK293T Luciferase reporter gene expressing cell lines were generated using pCDNA4 plasmids under an IRF-inducible promoter. This promoter is comprised of five tandem interferon-stimulated response elements (ISRE) fused to an ISG54 minimal promoter. This vector was transfected into HEK293T cells using Lipofectamine (Invitrogen) and transfected cells were selected under Zeocin selection. These transfected cells were further subjected to clonal selection using the limiting dilution method to obtain clonally pure populations of HEK cells transfected the Luciferase reporter construct. Only those clones were selected in which ligand independent induction of luciferase was minimal.
(§2) 5×10^5 clonally selected HEK293T-hSTING-Luciferase cells were seeded in 384-well plates in growth medium and stimulated with novel compounds. After 20 hr of stimulation supernatant were removed and secretary reporter gene activity were measured using the Quanti-Luc detection system (Invivogen) on a Spectramax i3X luminometer.
(§3) The 5 major polymorphisms of human STING are shown in FIG. 1, with their prevalence in human populations indicated.

[2] = molecular target: T2, WT/R232 STING protein (Homo sapiens, UniProt Q86WV6, H232R); assay: Luciferase reporter assay in HEK293T-hSTING-Luciferase cells (R232); format: cell-based; conditions: 20 hr stimulation, EC50 range
T2 construct: host or cells: HEK293T
T2 sequence (Q86WV6 whole entry H232R): as the sequence (Q86WV6 whole entry R71H/G230A/H232R/R293Q) above, with H71R, A230G, Q293R counted along it
How it was run: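 Clonal HEK293T cells stably expressing human STING R232 plus an ISRE/ISG54-driven secreted luciferase reporter, stimulated with compounds for 20 hr. Luciferase in supernatant read by luminescence; activity given as fold-induction over baseline.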

[3] = tested on: IRF pathway; assay: Reporter gene expression assay for IRF axis in THP1-Dual cells (secreted Lucia luciferase); format: cell-based, human; conditions: 20 hr stimulation, QUANTI-Luc, EC50 range, read-out: THP-IRF activity
Experimental: (§4) THP1-Dual™ cells (Invivogen) were derived from the human THP-1 monocyte cell line by stable integration of two inducible reporter constructs. As a result, THP1-Dual™ cells allow the simultaneous study of the NF-κB pathway, by monitoring the activity of secreted SEAP, and the IRF pathway, by assessing the activity of a secreted luciferase (Lucia). […] THP1-Dual™ cells were seeded in 384-well plates in growth medium and stimulated with novel compounds. After 20 hr of stimulation supernatant were removed and reporter proteins were readily measured in the cell culture supernatant using QUANTI-Blue™ (Invivogen), a SEAP detection reagent, and QUANTI-Luc™ (Invivogen), a luciferase detection reagent on a Spectramax i3X luminometer. EC50 value ranges for exemplary compounds tested in the above assay are given.

[4] = molecular target: T3, hSTING (H232) (Homo sapiens, UniProt Q86WV6); assay: Luciferase reporter assay in HEK293T-hSTING-Luciferase cells (H232/REF polymorph); format: cell-based; conditions: EC50 range
T3 construct: host or cells: HEK293T
T3 sequence (Q86WV6 whole entry): as the sequence (Q86WV6 whole entry R71H/G230A/H232R/R293Q) above, with H71R, A230G, R232H, Q293R counted along it
Excerpt: as §1, §2, §3

[5] = tested on: NF-κB pathway; assay: Reporter gene expression assay for NFκB axis in THP1-Dual cells (secreted SEAP); format: cell-based, human; conditions: 20 hr stimulation, QUANTI-Blue SEAP, EC50 range, read-out: THP-NFKB activity
Experimental: as §4

| SMILES | EC50 [1] | EC50 [2] | EC50 ([3]; Homo sapiens, THP1-Dual, 20 h) | EC50 [4] | EC50 ([5]; Homo sapiens, THP1-Dual, 20 h) | EC50 [3] | EC50 [5] |
| --- | --- | --- | --- | --- | --- | --- | --- |
| CC1(C)C(=O)N(Cc2c(F)cccc2C#N)c2cc(C(=O)NCc3c(F)cc(F)cc3F)ccc21 [Example 76, 1-(2-cyano-6-fluorobenzyl)-3,3-dimethyl-2-oxo-N-(2,4,6-trifluorobenzyl)indoline-6-carboxamide] | 1 to 10 µM | 1 to 10 µM | > 10 µM | 1 to 10 µM | > 10 µM |  |  |
| O=C(NCc1c(F)cc(F)cc1F)c1ccc2c(c1)N(Cc1cc(F)cc(F)c1)C(=O)C21CCCC1 [Example 137, 1′(3,5-difluorobenzyl)-2′-oxo-N-(2,4,6-trifluorobenzyl)spiro[cyclopentane-1,3′-indoline]-6′-carboxamide] | 1 to 10 µM | 1 to 10 µM | > 10 µM | 1 to 10 µM | > 10 µM |  |  |
| CC1(C)C(=O)N(Cc2c(F)cccc2Br)c2cc(C(=O)NCc3c(F)cc(F)cc3F)ccc21 [Example 108, 1-(2-bromo-6-fluorobenzyl)-3,3-dimethyl-2-oxo-N-(2,4,6-trifluorobenzyl)indoline-6-carboxamide] | > 10 µM | ≤ 1 µM | > 10 µM | > 10 µM | > 10 µM |  |  |
| Cc1ccc(CNC(=O)c2ccc3c(c2)N(Cc2ccc(F)cc2)C(=O)C3(C)C)o1 [Example 60, 1-(4-fluorobenzyl)-3,3-dimethyl-N-((5-methylfuran-2-yl)methyl)-2-oxoindoline-6-carboxamide] | 1 to 10 µM | 1 to 10 µM | > 10 µM | > 10 µM | > 10 µM |  |  |
| CC1(C)C(=O)N(Cc2ccccc2C#N)c2cc(C(=O)NCc3c(F)cc(F)cc3F)ccc21 [Example 124, 1-(2-cyanobenzyl)-3,3-dimethyl-2-oxo-N-(2,4,6-trifluorobenzyl)indoline-6-carboxamide] | 1 to 10 µM | ≤ 1 µM | > 10 µM | 1 to 10 µM | > 10 µM |  |  |
| CC1(Cl)C(=O)N(Cc2cc(F)cc(F)c2)c2cc(C(=O)NCc3c(F)cc(F)cc3F)ccc21 (centres unmarked) [Example 148] | 1 to 10 µM | 1 to 10 µM |  | 1 to 10 µM |  | > 10 µM | > 10 µM |
| CC1(C)C(=O)N(Cc2c(F)cccc2F)c2cc(C(=O)NCc3c(F)cc(F)cc3F)ccc21 [Example 109, 1-(2,6-difluorobenzyl)-3,3-dimethyl-2-oxo-N-(2,4,6-trifluorobenzyl)indoline-6-carboxamide] | ≤ 1 µM | ≤ 1 µM | 1 to 10 µM | ≤ 1 µM | 1 to 10 µM |  |  |
| CC1(Cl)C(=O)N(Cc2cc(F)cc(F)c2)c2cc(C(=O)NCc3c(F)cc(F)cc3F)ccc21 (centres unmarked) [Example 144, 3-Chloro-1-(3,5-difluorobenzyl)-3-methyl-2-oxo-N-(2,4,6 trifluorobenzyl) indoline-6-carboxamide] | 1 to 10 µM | ≤ 1 µM | > 10 µM | 1 to 10 µM |  |  | 1 to 10 µM |
| CC1(C#N)C(=O)N(Cc2c(F)cccc2Cl)c2cc(C(=O)NCc3c(F)cc(F)cc3F)ccc21 (centres unmarked) [Example 166, 1-(2-chloro-6-fluorobenzyl)-3-cyano-3-methyl-2-oxo-N-(2,4,6-trifluorobenzyl)indoline-6-carboxamide] | 1 to 10 µM | ≤ 1 µM |  | 1 to 10 µM |  | > 10 µM | > 10 µM |
| CC1(C)CN(C(=O)Cc2ccccc2)c2cc(C(=O)NCc3c(F)cc(F)cc3F)ccc21 [Example 136, 3,3-dimethyl-1-(2-phenylacetyl)-N-(2,4,6-trifluorobenzyl)indoline-6-carboxamide] | 1 to 10 µM | 1 to 10 µM | > 10 µM | > 10 µM | > 10 µM |  |  |

Now from value to compound:

| EC50 [1] | EC50 [2] | EC50 ([3]; Homo sapiens, THP1-Dual, 20 h) | EC50 [4] | EC50 ([5]; Homo sapiens, THP1-Dual, 20 h) | EC50 [3] | EC50 [5] | SMILES |
| --- | --- | --- | --- | --- | --- | --- | --- |
| 1 to 10 µM | ≤ 1 µM | 1 to 10 µM | 1 to 10 µM | 1 to 10 µM |  |  | Cc1cc(CN2C(=O)C(C)(C)c3ccc(C(=O)NCc4cc5ccccc5o4)cc32)n(C)n1 [Example 107, N-(benzofuran-2-ylmethyl)-1-((1,3-dimethyl-1H-pyrazol-5-yl)methyl)-3,3-dimethyl-2-oxoindoline-6-carboxamide] |
| 1 to 10 µM | 1 to 10 µM | > 10 µM | 1 to 10 µM | > 10 µM |  |  | Cc1cc(CN2C(=O)C(C)(C)c3ccc(C(=O)NCc4c(F)cc(F)cc4F)cc32)ccn1 [Example 54, 3,3-dimethyl-1-((2-methylpyridin-4-yl)methyl)-2-oxo-N-(2,4,6-trifluorobenzyl)indoline-6-carboxamide] |
| ≤ 1 µM | ≤ 1 µM | 1 to 10 µM | ≤ 1 µM | 1 to 10 µM |  |  | Cc1nn(C)c(CN2C(=O)C(C)(C)c3ccc(C(=O)NCc4c(F)cc(F)cc4F)cc32)c1Br [Example 106, 1-((4-bromo-1,3-dimethyl-1H-pyrazol-5-yl)methyl)-3,3-dimethyl-2-oxo-N-(2,4,6-trifluorobenzyl)indoline-6-carboxamide] |
| 1 to 10 µM | ≤ 1 µM | > 10 µM | 1 to 10 µM | > 10 µM |  |  | CC1(C)C(=O)N(Cc2noc3ncccc23)c2cc(C(=O)NCc3c(F)cc(F)cc3F)ccc21 [Example 97, 1-(isoxazolo[5,4-b]pyridin-3-ylmethyl)-3,3-dimethyl-2-oxo-N-(2,4,6-trifluorobenzyl)indoline-6-carboxamide] |
| ≤ 1 µM | ≤ 1 µM | 1 to 10 µM | ≤ 1 µM | 1 to 10 µM |  |  | Cc1nn(C)c(CN2C(=O)C(C)(C)c3ccc(C(=O)NCc4cc5cc(F)c(F)cc5o4)cc32)c1F [Example 114, N-((5,6-difluorobenzofuran-2-yl)methyl)-1-((4-fluoro-1,3-dimethyl-1H-pyrazol-5-yl)methyl)-3,3-dimethyl-2-oxoindoline-6-carboxamide] |
| 1 to 10 µM | ≤ 1 µM | > 10 µM | 1 to 10 µM | 1 to 10 µM |  |  | CC1(C)C(=O)N(Cc2cccc(Cl)c2)c2cc(C(=O)NCc3c(F)cc(F)cc3F)ccc21 [Example 19, 1-(3-chlorobenzyl)-3,3-dimethyl-2-oxo-N-(2,4,6-trifluorobenzyl)indoline-6-carboxamide] |
| 1 to 10 µM | ≤ 1 µM | > 10 µM | 1 to 10 µM | > 10 µM |  |  | COCCn1nc(C)c(F)c1CN1C(=O)C(C)(C)c2ccc(C(=O)NCc3cc4cc(F)ccc4o3)cc21 [Example 118, 1-((4-fluoro-1-(2-methoxyethyl)-3-methyl-1H-pyrazol-5-yl)methyl)-N-((5-fluorobenzofuran-2-yl)methyl)-3,3-dimethyl-2-oxoindoline-6-carboxamide] |
| 1 to 10 µM | ≤ 1 µM | > 10 µM | 1 to 10 µM | > 10 µM |  |  | Cc1ccc(CNC(=O)c2ccc3c(c2)N(Cc2c(C)cccc2F)C(=O)C3(C)C)o1 [Example 63, 1-(2-fluoro-6-methylbenzyl)-3,3-dimethyl-N-((5-methylfuran-2-yl)methyl)-2-oxoindoline-6-carboxamide] |
| 1 to 10 µM | ≤ 1 µM | 1 to 10 µM | 1 to 10 µM | 1 to 10 µM |  |  | Cc1cc(CN2C(=O)C(C)(C)c3ccc(C(=O)NCc4c(F)cc(F)cc4F)cc32)n(C)n1 [Example 82, 1-((1,3-dimethyl-1H-pyrazol-5-yl)methyl)-3,3-dimethyl-2-oxo-N-(2,4,6-trifluorobenzyl)indoline-6-carboxamide] |
